In ChEMBL document CHEMBL1201861, “Genomics of Drug Sensitity in Cancer screening data, Wellcome Trust Sanger Institute”:

Columns and labels:
Test in all cases: cells
SH-4 = assay type: functional, cell-based; details: Homo sapiens;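 also: growth inhibition of SH-4 cells, read out with a cell viability assay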
Description: SANGER: Inhibition of human SH-4 cell growth in a cell viability assay.

GI-ME-N = assay type: functional, cell-based, Homo sapiens; details: Homo sapiens, GI-ME-N;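 also: growth inhibition of human GI-ME-N cells, read out with a cell viability assay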
Description: SANGER: Inhibition of human GI-ME-N cell growth in a cell viability assay.

SF-126 = assay type: functional, cell-based, Homo sapiens; details: Homo sapiens, SF-126;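 also: growth inhibition of human SF126 cells, read out with a cell viability assay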
Description: SANGER: Inhibition of human SF126 cell growth in a cell viability assay.

MPP-89 = assay type: functional, cell-based, Homo sapiens; details: Homo sapiens, MPP-89;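 also: growth inhibition of human MPP-89 cells, read out with a cell viability assay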
Description: SANGER: Inhibition of human MPP-89 cell growth in a cell viability assay.

NB6 = assay type: functional, cell-based, Homo sapiens; details: Homo sapiens, NB6;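 also: growth inhibition of NB6 cells, read out by a cell viability assay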
Description: SANGER: Inhibition of human NB6 cell growth in a cell viability assay.

BB49-HNC = assay type: functional, cell-based, Homo sapiens; details: Homo sapiens, BB49-HNC;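 also: cell viability assay read-out, reported as inhibition of BB49-HNC cell growth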
Description: SANGER: Inhibition of human BB49-HNC cell growth in a cell viability assay.

C2BBe1 = assay type: functional, cell-based, Homo sapiens; details: Homo sapiens, C2BBe1;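 also: growth inhibition of C2BBe1 cells, read out through a viability assay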
Description: SANGER: Inhibition of human C2BBe1 cell growth in a cell viability assay.

KGN = assay type: functional, cell-based, Homo sapiens; details: Homo sapiens, KGN;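 also: growth inhibition of KGN cells, read out with a cell viability assay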
Description: SANGER: Inhibition of human KGN cell growth in a cell viability assay.

NCI-H747 = assay type: functional, cell-based, Homo sapiens; details: Homo sapiens, NCI-H747;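 also: growth inhibition of human NCI-H747 cells, read out by a cell viability assay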
Description: SANGER: Inhibition of human NCI-H747 cell growth in a cell viability assay.

BE-13 = assay type: functional, cell-based, Homo sapiens; details: Homo sapiens, BE-13;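 also: growth inhibition of human BE-13 cells, measured with a cell viability assay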
Description: SANGER: Inhibition of human BE-13 cell growth in a cell viability assay.

VA-ES-BJ = assay type: functional, cell-based, Homo sapiens; details: Homo sapiens, VA-ES-BJ;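 also: growth inhibition of the VA-ES-BJ cell line, read out by a cell viability assay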
Description: SANGER: Inhibition of human VA-ES-BJ cell growth in a cell viability assay.

COLO-684 = assay type: functional, cell-based, Homo sapiens; details: Homo sapiens, COLO-684
Description: SANGER: Inhibition of human COLO-684 cell growth in a cell viability assay.

MMAC-SF = assay type: functional, cell-based; details: Homo sapiens;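 also: growth inhibition of human MMAC-SF cells, read out with a cell viability assay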
Description: SANGER: Inhibition of human MMAC-SF cell growth in a cell viability assay.

NCI-H1304 = assay type: functional, cell-based, Homo sapiens; details: Homo sapiens, NCI-H1304;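 also: growth inhibition of the cancer cell line, measured in a cell viability assay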
Description: SANGER: Inhibition of human NCI-H1304 cell growth in a cell viability assay.

GB-1 = assay type: functional, cell-based, Homo sapiens; details: Homo sapiens, GB-1;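 also: growth of GB-1 cells judged by a viability assay, IC50 marks the concentration inhibiting growth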
Description: SANGER: Inhibition of human GB-1 cell growth in a cell viability assay.

GOTO = assay type: functional, cell-based, Homo sapiens; details: Homo sapiens, GOTO;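 also: growth inhibition of GOTO cells, read out by a cell viability assay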
Description: SANGER: Inhibition of human GOTO cell growth in a cell viability assay.

RXF 393 = assay type: functional, cell-based, Homo sapiens; details: Homo sapiens, RXF 393;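 also: growth inhibition of human RXF 393 cells, read out with a cell viability assay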
Description: SANGER: Inhibition of human RXF393 cell growth in a cell viability assay.

MC116 = assay type: functional, cell-based, Homo sapiens; details: Homo sapiens, MC116;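 also: growth inhibition of MC116 cells, read out with a cell viability assay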
Description: SANGER: Inhibition of human MC116 cell growth in a cell viability assay.

GI-1 = assay type: functional, cell-based, Homo sapiens; details: Homo sapiens, GI-1;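 also: growth inhibition of human GI-1 cells, measured with a cell viability readout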
Description: SANGER: Inhibition of human GI-1 cell growth in a cell viability assay.

NKM-1 = assay type: functional, cell-based, Homo sapiens; details: Homo sapiens, NKM-1;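 also: growth inhibition of NKM-1 cells, read out with a cell viability assay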
Description: SANGER: Inhibition of human NKM-1 cell growth in a cell viability assay.

GT3TKB = assay type: functional, cell-based, Homo sapiens; details: Homo sapiens, GT3TKB;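 also: growth inhibition of the cell line, read out with a cell viability assay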
Description: SANGER: Inhibition of human GT3TKB cell growth in a cell viability assay.

COR-L88 = assay type: functional, cell-based, Homo sapiens; details: Homo sapiens, COR-L88;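 also: growth inhibition of COR-L88 cells, read out with a cell viability assay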
Description: SANGER: Inhibition of human COR-L88 cell growth in a cell viability assay.

KARPAS-45 = assay type: functional, cell-based, Homo sapiens; details: Homo sapiens, KARPAS-45;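 also: inhibition of cell line growth, read out through a viability assay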
Description: SANGER: Inhibition of human KARPAS-45 cell growth in a cell viability assay.

OCUB-M = assay type: functional, cell-based; details: Homo sapiens;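 also: growth inhibition of the cancer cell line, read out through a cell viability assay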
Description: SANGER: Inhibition of human OCUB-M cell growth in a cell viability assay.

LAN-6 = assay type: functional, cell-based, Homo sapiens; details: Homo sapiens, LAN-6;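 also: growth inhibition of LAN-6 cells, determined with a cell viability assay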
Description: SANGER: Inhibition of human LAN-6 cell growth in a cell viability assay.

NCI-H1395 = assay type: functional, cell-based, Homo sapiens; details: Homo sapiens, NCI-H1395;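 also: cell viability assay read-out quantifying reduced proliferation of human NCI-H1395 cells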
Description: SANGER: Inhibition of human NCI-H1395 cell growth in a cell viability assay.

SK-MEL-1 = assay type: functional, cell-based, Homo sapiens; details: Homo sapiens, SK-MEL-1;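 also: growth inhibition of human SK-MEL-1 cells, read out by a cell viability assay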
Description: SANGER: Inhibition of human SK-MEL-1 cell growth in a cell viability assay.

OVCAR-4 = assay type: functional, cell-based, Homo sapiens; details: Homo sapiens, OVCAR-4;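 also: growth inhibition of human OVCAR-4 cells, measured with a cell viability assay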
Description: SANGER: Inhibition of human OVCAR-4 cell growth in a cell viability assay.

NCI-H2126 = assay type: functional, cell-based, Homo sapiens; details: Homo sapiens, NCI-H2126;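 also: growth inhibition of the cancer cell line, determined with a cell viability readout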
Description: SANGER: Inhibition of human NCI-H2126 cell growth in a cell viability assay.

Lu-65 = assay type: functional, cell-based, Homo sapiens; details: Homo sapiens, Lu-65;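 also: growth inhibition of Lu-65 cancer cells, read out by a cell viability assay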
Description: SANGER: Inhibition of human LU-65 cell growth in a cell viability assay.

NB5 = assay type: functional, cell-based, Homo sapiens; details: Homo sapiens, NB5;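 also: growth inhibition of NB5 cells, read out as cell viability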
Description: SANGER: Inhibition of human NB5 cell growth in a cell viability assay.

DMS-114 = assay type: functional, cell-based, Homo sapiens; details: Homo sapiens, DMS-114
LS-1034 = assay type: functional, cell-based, Homo sapiens; details: Homo sapiens, LS-1034
Description: SANGER: Inhibition of human LS-1034 cell growth in a cell viability assay.

RCC10RGB = assay type: functional, cell-based, Homo sapiens; details: Homo sapiens, RCC10RGB;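 also: growth inhibition of human RCC10RGB cells, read out by a cell viability assay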
Description: SANGER: Inhibition of human RCC10RGB cell growth in a cell viability assay.

GR-ST = assay type: functional, cell-based, Homo sapiens; details: Homo sapiens, GR-ST
Description: SANGER: Inhibition of human GR-ST cell growth in a cell viability assay.

MOLT-16 = assay type: functional, cell-based, Homo sapiens; details: Homo sapiens, MOLT-16;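 also: growth inhibition of human MOLT-16 cells, read out with a cell viability assay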
Description: SANGER: Inhibition of human MOLT-16 cell growth in a cell viability assay.

KS-1 = assay type: functional, cell-based; details: Homo sapiens;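 also: growth inhibition of KS-1 cells, read out with a cell viability assay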
Description: SANGER: Inhibition of human KS-1 cell growth in a cell viability assay.

no-11 = assay type: functional, cell-based, Homo sapiens; details: Homo sapiens;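 also: growth inhibition of human NO-11 cells, read out with a cell viability assay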
Description: SANGER: Inhibition of human no-11 cell growth in a cell viability assay.

KLE = assay type: functional, cell-based; details: Homo sapiens;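 also: growth inhibition of human KLE cells, read out with a cell viability assay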
Description: SANGER: Inhibition of human KLE cell growth in a cell viability assay.

EW-16 = assay type: functional, cell-based, Homo sapiens; details: Homo sapiens, EW-16;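 also: growth inhibition of human EW-16 cells, read out as cell viability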
Description: SANGER: Inhibition of human EW-16 cell growth in a cell viability assay.

EW-11 = assay type: functional, cell-based, Homo sapiens; details: Homo sapiens, EW-11;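 also: growth inhibition of human EW-11 cells, measured with a cell viability assay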
Description: SANGER: Inhibition of human EW-11 cell growth in a cell viability assay.

TGBC24TKB = assay type: functional, cell-based; details: Homo sapiens;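 also: growth inhibition of human TGBC24TKB cells, read out with a cell viability assay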
Description: SANGER: Inhibition of human TGBC24TKB cell growth in a cell viability assay.

SNU-C2B = assay type: functional, cell-based; details: Homo sapiens;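 also: cell viability readout used to measure compound-driven suppression of SNU-C2B cell proliferation, IC50 marking half-maximal growth inhibition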
Description: SANGER: Inhibition of human SNU-C2B cell growth in a cell viability assay.

DJM-1 = assay type: functional, cell-based, Homo sapiens; details: Homo sapiens, DJM-1;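 also: growth inhibition of human DJM-1 cells, read out by a cell viability assay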
Description: SANGER: Inhibition of human DJM-1 cell growth in a cell viability assay.

ALL-PO = assay type: functional, cell-based, Homo sapiens; details: Homo sapiens, ALL-PO;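 also: growth inhibition of ALL-PO cells, read out by a cell viability assay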
Description: SANGER: Inhibition of human ALL-PO cell growth in a cell viability assay.

MZ2-MEL = assay type: functional, cell-based, Homo sapiens; details: Homo sapiens, MZ2-MEL;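 also: growth inhibition of MZ2-MEL cells read out with a cell viability assay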
Description: SANGER: Inhibition of human MZ2-MEL cell growth in a cell viability assay.

HL-60 = assay type: functional, cell-based, Homo sapiens; details: Homo sapiens, HL-60;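 also: growth inhibition of human HL-60 cells, read out with a cell viability assay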
Description: SANGER: Inhibition of human HL-60 cell growth in a cell viability assay.

HOP-62 = assay type: functional, cell-based, Homo sapiens; details: Homo sapiens, HOP-62;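 also: cell growth inhibition determined with a viability assay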
Description: SANGER: Inhibition of human HOP-62 cell growth in a cell viability assay.

TE-10 = assay type: functional, cell-based, Homo sapiens; details: Homo sapiens, TE-10;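 also: growth inhibition of TE-10 cells, measured by a cell viability assay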
Description: SANGER: Inhibition of human TE-10 cell growth in a cell viability assay.

LB771-HNC = assay type: functional, cell-based; details: Homo sapiens;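 also: growth inhibition of LB771-HNC human cells, read out with a cell viability assay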
Description: SANGER: Inhibition of human LB771-HNC cell growth in a cell viability assay.

KE-37 = assay type: functional, cell-based, Homo sapiens; details: Homo sapiens, KE-37;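 also: growth inhibition of KE-37 cells, read out with a cell viability assay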
Description: SANGER: Inhibition of human KE-37 cell growth in a cell viability assay.

Work on `COc1ccc(N(C(=O)Oc2c(C)cccc2C)c2ccnc(Nc3ccc(N4CCN(C)CC4)cc3)n2)c(OC)c1` yielded an IC50 (SH-4) of 2.12 µM, an IC50 (GI-ME-N) of 3.25 µM and an IC50 (SF-126) of 1.73 µM. The IC50 (MPP-89) was 0.0823 µM, the IC50 (NB6) was 1.7 µM and the IC50 (BB49-HNC) was over 5.12 µM. The IC50 (C2BBe1) was over 5.12 µM, the IC50 (KGN) was 1.05 µM and the IC50 (NCI-H747) was over 5.12 µM. It also gave an IC50 (BE-13) of over 5.12 µM, an IC50 (VA-ES-BJ) of 0.463 µM and an IC50 (COLO-684) of over 5.12 µM. It also gave an IC50 (MMAC-SF) of over 5.12 µM, an IC50 (NCI-H1304) of over 5.12 µM and an IC50 (GB-1) of 1.16 µM. For the same molecule, the IC50 (GOTO) was over 5.12 µM, the IC50 (RXF 393) was 0.106 µM and the IC50 (MC116) was 2.86 µM. The IC50 (GI-1) was over 5.12 µM, the IC50 (NKM-1) was over 5.12 µM and the IC50 (GT3TKB) was over 5.12 µM. It also gave an IC50 (COR-L88) of over 5.12 µM, an IC50 (KARPAS-45) of over 5.12 µM and an IC50 (OCUB-M) of over 5.12 µM. It also gave an IC50 (LAN-6) of over 5.12 µM, an IC50 (NCI-H1395) of over 5.12 µM and an IC50 (SK-MEL-1) of over 5.12 µM. The IC50 (OVCAR-4) was over 5.12 µM, the IC50 (NCI-H2126) was over 5.12 µM and the IC50 (Lu-65) was over 5.12 µM. It also gave an IC50 (NB5) of over 5.12 µM, an IC50 (DMS-114) of 2.79 µM and an IC50 (LS-1034) of over 5.12 µM. It also gave an IC50 (RCC10RGB) of 0.426 µM, an IC50 (GR-ST) of over 5.12 µM and an IC50 (MOLT-16) of over 5.12 µM. For the same molecule, the IC50 (KS-1) was 0.0776 µM, the IC50 (no-11) was over 5.12 µM and the IC50 (KLE) was 1.86 µM. It also gave an IC50 (EW-16) of over 5.12 µM, an IC50 (EW-11) of over 5.12 µM and an IC50 (TGBC24TKB) of 1.04 µM. For the same molecule, the IC50 (SNU-C2B) was over 5.12 µM, the IC50 (DJM-1) was over 5.12 µM and the IC50 (ALL-PO) was over 5.12 µM. It also gave an IC50 (MZ2-MEL) of 3.09 µM, an IC50 (HL-60) of over 5.12 µM and an IC50 (HOP-62) of 0.916 µM. The IC50 (TE-10) was 4.28 µM, the IC50 (LB771-HNC) was over 5.12 µM and the IC50 (KE-37) was over 5.12 µM.

Molecule `NC(=O)Nc1cc(-c2cccc(F)c2)sc1C(=O)N[C@H]1CCCNC1` [AZD-7762] has an IC50 (SH-4) of over 2 µM, an IC50 (GI-ME-N) of 0.455 µM and an IC50 (SF-126) of 0.574 µM. The IC50 (MPP-89) was 0.245 µM, the IC50 (NB6) was 0.985 µM and the IC50 (BB49-HNC) was 1.4 µM. For the same molecule, the IC50 (C2BBe1) was 0.689 µM, the IC50 (KGN) was 1.23 µM and the IC50 (NCI-H747) was over 2 µM. It also gave an IC50 (BE-13) of 0.201 µM, an IC50 (VA-ES-BJ) of 0.226 µM and an IC50 (COLO-684) of 0.294 µM. The IC50 (MMAC-SF) was over 2 µM, the IC50 (NCI-H1304) was over 2 µM and the IC50 (GB-1) was 1.38 µM. For the same molecule, the IC50 (GOTO) was 0.0312 µM, the IC50 (RXF 393) was 0.29 µM and the IC50 (MC116) was 0.257 µM. It also gave an IC50 (GI-1) of 0.196 µM, an IC50 (NKM-1) of under 0.00781 µM and an IC50 (GT3TKB) of 1.49 µM. For the same molecule, the IC50 (COR-L88) was 0.365 µM, the IC50 (KARPAS-45) was 0.168 µM and the IC50 (OCUB-M) was over 2 µM. For the same molecule, the IC50 (LAN-6) was 1.08 µM, the IC50 (NCI-H1395) was 0.198 µM and the IC50 (SK-MEL-1) was over 2 µM. It also gave an IC50 (OVCAR-4) of 0.32 µM, an IC50 (NCI-H2126) of over 2 µM and an IC50 (Lu-65) of over 2 µM. The IC50 (NB5) was 0.797 µM, the IC50 (DMS-114) was over 2 µM and the IC50 (LS-1034) was over 2 µM. The IC50 (RCC10RGB) was over 2 µM, the IC50 (GR-ST) was 0.178 µM and the IC50 (MOLT-16) was 0.0881 µM. For the same molecule, the IC50 (KS-1) was 0.466 µM, the IC50 (no-11) was 1.49 µM and the IC50 (KLE) was over 2 µM. The IC50 (EW-16) was 0.538 µM, the IC50 (EW-11) was 0.563 µM and the IC50 (TGBC24TKB) was 0.165 µM. It also gave an IC50 (SNU-C2B) of 0.281 µM, an IC50 (DJM-1) of 0.886 µM and an IC50 (ALL-PO) of 0.242 µM. The IC50 (MZ2-MEL) was over 2 µM, the IC50 (HL-60) was 0.774 µM and the IC50 (HOP-62) was 0.726 µM. It also gave an IC50 (TE-10) of 0.91 µM, an IC50 (LB771-HNC) of 0.559 µM and an IC50 (KE-37) of 0.0314 µM.

`CC(C)C[C@H](NC(=O)[C@H](Cc1ccccc1)NC(=O)c1cnccn1)B(O)O` [BORTEZOMIB] was tested, and the IC50 (SH-4) was 0.000173 µM, the IC50 (GI-ME-N) was 0.000634 µM and the IC50 (SF-126) was 0.000701 µM. For the same molecule, the IC50 (MPP-89) was 0.00189 µM, the IC50 (NB6) was 0.00848 µM and the IC50 (BB49-HNC) was 0.000652 µM. The IC50 (C2BBe1) was 0.00289 µM, the IC50 (KGN) was 0.00215 µM and the IC50 (NCI-H747) was 0.000539 µM. It also gave an IC50 (BE-13) of 0.00193 µM, an IC50 (VA-ES-BJ) of 0.00109 µM and an IC50 (COLO-684) of 0.00366 µM. For the same molecule, the IC50 (MMAC-SF) was 0.000216 µM, the IC50 (NCI-H1304) was over 0.02 µM and the IC50 (GB-1) was 0.00181 µM. For the same molecule, the IC50 (GOTO) was 0.0171 µM, the IC50 (RXF 393) was 0.000914 µM and the IC50 (MC116) was over 0.02 µM. The IC50 (GI-1) was 0.000764 µM, the IC50 (NKM-1) was 0.002 µM and the IC50 (GT3TKB) was 0.00212 µM. For the same molecule, the IC50 (COR-L88) was 0.00347 µM, the IC50 (KARPAS-45) was 0.00354 µM and the IC50 (OCUB-M) was 0.000447 µM. For the same molecule, the IC50 (LAN-6) was 0.00205 µM, the IC50 (NCI-H1395) was over 0.02 µM and the IC50 (SK-MEL-1) was over 0.02 µM. It also gave an IC50 (OVCAR-4) of 0.000289 µM, an IC50 (NCI-H2126) of 0.0018 µM and an IC50 (Lu-65) of 0.00584 µM. The IC50 (NB5) was 0.00227 µM, the IC50 (DMS-114) was 0.00962 µM and the IC50 (LS-1034) was over 0.02 µM. The IC50 (RCC10RGB) was 0.00393 µM, the IC50 (GR-ST) was over 0.02 µM and the IC50 (MOLT-16) was 0.00289 µM. For the same molecule, the IC50 (KS-1) was 0.00034 µM, the IC50 (no-11) was 0.00355 µM and the IC50 (EW-16) was 0.00275 µM. It also gave an IC50 (EW-11) of over 0.02 µM, an IC50 (DJM-1) of 0.00363 µM and an IC50 (ALL-PO) of over 0.02 µM. It also gave an IC50 (MZ2-MEL) of 0.000407 µM, an IC50 (HL-60) of 0.00467 µM and an IC50 (HOP-62) of 0.000647 µM. The IC50 (TE-10) was 0.00103 µM, the IC50 (LB771-HNC) was 0.000474 µM and the IC50 (KE-37) was 0.00213 µM.
